Patent US6924302B2, “Substituted triazole diamine derivatives as kinase inhibitors” (Ortho McNeil Pharmaceutical, Inc., priority 2000, dated 2005)
Like-named read-outs stand apart in the source and are kept apart here.

Tests used:
[1] = target: T1, Glycogen Synthase Kinase-3 (beta isoform) (Oryctolagus cuniculus, UniProt G1T8E2); assay: Kinase Selectivity Assay Glycogen Synthase Kinase-3; assay type: biochemical, rabbit; settings: Kinase Selectivity, Tables 2a-2k; read-out: GSK-3 IC50
T1 construct: purchased New England Biolabs 6040; host or cells: E. coli
T1 sequence (G1T8E2 1-432): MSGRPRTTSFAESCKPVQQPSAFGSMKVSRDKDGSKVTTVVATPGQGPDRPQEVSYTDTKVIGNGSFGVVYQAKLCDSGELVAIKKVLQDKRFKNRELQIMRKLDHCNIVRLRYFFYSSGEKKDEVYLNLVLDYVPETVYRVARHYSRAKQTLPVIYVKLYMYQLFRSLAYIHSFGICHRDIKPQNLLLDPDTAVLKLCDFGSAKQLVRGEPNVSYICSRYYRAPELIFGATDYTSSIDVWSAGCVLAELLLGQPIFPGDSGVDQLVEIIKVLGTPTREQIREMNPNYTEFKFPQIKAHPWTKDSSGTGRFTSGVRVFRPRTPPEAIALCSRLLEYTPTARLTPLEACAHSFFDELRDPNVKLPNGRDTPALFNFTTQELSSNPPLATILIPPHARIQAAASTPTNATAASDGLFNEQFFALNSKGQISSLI
Procedure, shortened: (§1)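 Radiometric Flashplate format: ^33P-γ-ATP transfer to immobilized biotinylated peptide, 1 h, 30° C, 1% DMSO final, enzyme in 50 mM Tris-HCl pH=8.0 + 0.1% BSA. Duplicate 8-point dilution, 100 uM down to 10 pM. IC50 from % inhibition of plate max signal versus log conc.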

[2] = system: HeLa cervical adenocarcinoma; assay: Inhibition of Cell Proliferation (14C-thymidine incorporation), HeLa; assay type: cell-based; settings: Homo sapiens, HeLa cell line
Procedure: (§2) The ability of a test compound to inhibit the proliferation of cell growth was determined by measuring incorporation of ^14C-labelled thymidine into newly synthesized DNA within the cells. This method was used on cell lines derived from carcinomas originating from several tissues such as HeLa cervical adenocarcinoma (American Type Culture Collection (ATCC), Virginia, Cat. #CCL-2), A375 malignant melanoma (ATCC CRL-1619), SK-OV-3 ovarian adenocarcinoma (ATCC HTB-77) HCT-116 colon carcinoma (CCL-247), PC-3 prostate adenocarcinoma (ATCC CRL-1435), and MDA-MB-231 (Xenogen Corp.) In this way the effect of a compound on cell growth of cells with many different phenotypes can be determined. Cells were trypsinized and counted and 3000-8000 cells were added to each well of a 96-well CytoStar tissue culture treated scintillating microplate (Amersham #RPNQ0160) in complete medium in a volume of 100 μl. Cells were incubated for 24 hours in complete medium at 37° C. in an atmosphere containing 5% CO2. Next, 1 μl of test compound in 100% DMSO was added to the wells of the plate. DMSO only was added to control wells. Cells were incubated for 24 more hours in complete medium at 37° C. in an atmosphere containing 5% CO2. Methyl ^14C-thymidine 56 mCi/mmol (NEN #NEC568 or Amersham #CFA532) was diluted in complete medium and 0.2 uCi/well was added to each well of the CytoStar plate in a volume of 20 μl. The plate was incubated for 24 hours at 37° C. plus 5% CO2 in drug plus ^14C-thymidine. The contents of the plate were discarded into a ^14C radioactive waste container by inverting the plate and the plate was washed twice with 200 μl PBS. 200 μl of PBS is added to each well. The top of the plate was sealed with a transparent plate sealer and a white plate backing sealer (Packard #6005199) was applied to the bottom of the plate. The degree of methyl ^14C-thymidine incorporation was quantified on a Packard Top Count.

[3] = target: T2, VEGF-R (vascular endothelial growth factor receptor-2) (Rattus norvegicus, UniProt O08775); assay: VEGF-R Screening Assay; assay type: biochemical; settings: read-out: VEGF-R IC50
T2 construct: polyhistidine (6xHIS) (N)
T2 sequence (O08775 786-1343): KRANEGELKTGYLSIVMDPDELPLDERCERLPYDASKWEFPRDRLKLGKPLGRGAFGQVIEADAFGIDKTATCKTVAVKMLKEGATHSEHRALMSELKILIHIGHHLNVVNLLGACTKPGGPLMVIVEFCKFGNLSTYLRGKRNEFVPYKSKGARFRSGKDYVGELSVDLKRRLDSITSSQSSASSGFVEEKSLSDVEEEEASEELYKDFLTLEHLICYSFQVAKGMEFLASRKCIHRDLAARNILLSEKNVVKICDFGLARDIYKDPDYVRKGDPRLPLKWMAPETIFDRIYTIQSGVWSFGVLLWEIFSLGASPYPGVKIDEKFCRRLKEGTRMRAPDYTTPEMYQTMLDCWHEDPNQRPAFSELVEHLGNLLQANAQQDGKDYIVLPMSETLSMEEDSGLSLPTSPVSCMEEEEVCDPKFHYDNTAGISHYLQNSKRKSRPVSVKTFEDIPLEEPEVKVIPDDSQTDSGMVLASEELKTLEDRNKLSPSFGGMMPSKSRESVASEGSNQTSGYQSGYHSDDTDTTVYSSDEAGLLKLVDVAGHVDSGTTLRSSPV

[4] = target: PKC (protein kinase-C), gamma or beta isoform; assay: Kinase Selectivity Assay PKC; assay type: biochemical, human; settings: Tables 2a-2k
Procedure: (§3) Assays to test compound inhibition of other kinases were preformed using methods that measure the amount of phosphorylation of a biotinylated peptide substrate. Biotinylated peptide substrates were selected from the literature as appropriate for the enzyme being evaluated. […] Assay conditions vary slightly for each protein kinase, for example, insulin receptor kinase requires 10 mM MnCl2 for activity and Calmodulin-dependent protein kinase requires calmodulin and 10 mM CaCl2. These assay conditions are known in the art. The reaction mixture was dispensed into the wells of a streptavidin coated Flashplate and 1 μl drug stock in 100% DMSO was added to a 100 μl reaction volume resulting in a final concentration of 1% DMSO on the reaction. Enzyme was diluted in 50 mM Tris-HCl pH=8.0, 0.1% BSA and add to each well. The reaction was incubated for one hour at 30° C. in the presence of compound. After one hour the reaction mix was aspirated from the plate and the plate was washed with PBS containing 100 mM EDTA. The plate was read on a scintillation counter to determine ^33P-γ-ATP incorporated into the immobilized peptide. Test compounds were assayed in duplicate at 8 concentrations [100 uM, 10 uM, 1 uM, 100 nM, 10 nM, 1 nM, 100 pM, 10 pM]. A maximum and minimum signal for the assay was determined on each plate. The IC50 was calculated from the dose response curve of the percent inhibition of the maximum signal in the assay according to the formula [max signal—background/test compound signal—background (100)=% inhibition] by graphing the percent inhibition against the log concentration of test compound. Known inhibitor compounds appropriate for the kinase being assayed were also included on each plate.
CDK2 in complex with cyclin A is commercially available (Upstate Biotech, Lake Placid, N.Y.). […]

[5] = system: PC-3 prostate adenocarcinoma; assay: Inhibition of Cell Proliferation (14C-thymidine incorporation), PC-3; assay type: cell-based; settings: Homo sapiens, PC-3 cell line
Procedure: as §2

[6] = target: T3, MAP Kinase (ERK-2 isoform) (Rattus norvegicus, UniProt P63086); assay: Kinase Selectivity Assay MAP Kinase (ERK-2); assay type: biochemical; settings: Kinase Selectivity, Tables 2a-2k; read-out: ERK 2 IC50
T3 construct: polyhistidine (N); host or cells: E. coli
T3 sequence (P63086 whole entry, canonical isoform): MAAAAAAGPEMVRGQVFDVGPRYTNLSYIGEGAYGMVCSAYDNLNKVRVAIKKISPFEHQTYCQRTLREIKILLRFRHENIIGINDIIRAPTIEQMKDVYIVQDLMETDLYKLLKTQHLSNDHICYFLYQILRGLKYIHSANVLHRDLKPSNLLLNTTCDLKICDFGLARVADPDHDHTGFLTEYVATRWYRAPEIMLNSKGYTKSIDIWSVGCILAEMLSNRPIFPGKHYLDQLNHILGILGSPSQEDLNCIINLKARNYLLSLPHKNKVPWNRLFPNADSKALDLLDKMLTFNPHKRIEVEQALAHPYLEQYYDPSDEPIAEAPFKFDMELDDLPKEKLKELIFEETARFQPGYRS
Procedure, shortened: as §1

[7] = target: T4, Casein Kinase 2 (alpha and beta subunits) (Homo sapiens, UniProt P68400); assay: Kinase Selectivity Assay Casein Kinase 2; assay type: biochemical; settings: Kinase Selectivity, Tables 2a-2k; read-out: Caseine Kinase 2 IC50
T4 construct: purchased New England Biolabs 6010; host or cells: E. coli
T4 sequence (P68400 whole entry): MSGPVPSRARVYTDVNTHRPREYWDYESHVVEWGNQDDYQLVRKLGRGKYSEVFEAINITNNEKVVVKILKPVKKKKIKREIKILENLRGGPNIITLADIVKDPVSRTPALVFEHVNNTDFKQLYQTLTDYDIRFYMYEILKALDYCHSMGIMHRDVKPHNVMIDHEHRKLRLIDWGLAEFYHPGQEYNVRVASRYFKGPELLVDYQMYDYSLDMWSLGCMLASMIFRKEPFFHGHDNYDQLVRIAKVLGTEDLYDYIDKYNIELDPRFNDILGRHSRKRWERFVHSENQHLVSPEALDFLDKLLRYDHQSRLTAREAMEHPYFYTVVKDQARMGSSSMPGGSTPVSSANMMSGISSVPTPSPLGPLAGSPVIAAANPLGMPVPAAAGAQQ
T4 sequence (P67870 whole entry partner): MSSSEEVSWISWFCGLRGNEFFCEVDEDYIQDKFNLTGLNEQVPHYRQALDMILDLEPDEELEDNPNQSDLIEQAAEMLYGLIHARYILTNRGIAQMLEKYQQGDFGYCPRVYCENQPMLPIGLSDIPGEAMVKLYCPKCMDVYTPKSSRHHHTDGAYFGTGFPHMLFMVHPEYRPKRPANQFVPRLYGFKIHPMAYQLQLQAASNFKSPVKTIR
Procedure, shortened: as §1

[8] = target: Insulin Receptor Kinase (Homo sapiens, UniProt P06213); assay: Kinase Selectivity Assay Insulin Receptor Kinase; assay type: biochemical; settings: Kinase Selectivity, Tables 2a-2k; read-out: Insulin R Kinase IC50
Insulin Receptor Kinase, sequence (P06213 980-1352): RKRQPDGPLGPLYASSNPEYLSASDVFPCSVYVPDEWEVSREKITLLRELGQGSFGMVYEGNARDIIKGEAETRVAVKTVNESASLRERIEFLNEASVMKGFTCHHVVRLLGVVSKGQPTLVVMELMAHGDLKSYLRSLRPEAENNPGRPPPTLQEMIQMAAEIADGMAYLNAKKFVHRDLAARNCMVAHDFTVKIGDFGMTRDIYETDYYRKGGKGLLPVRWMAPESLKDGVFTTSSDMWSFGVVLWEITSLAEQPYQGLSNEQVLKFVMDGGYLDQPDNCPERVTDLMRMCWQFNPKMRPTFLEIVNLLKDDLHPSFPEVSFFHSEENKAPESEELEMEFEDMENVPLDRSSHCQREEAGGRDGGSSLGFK
Procedure, shortened: as §1

[9] = target: T5, Calmodulin Kinase (calmodulin-dependent protein kinase 2) (Rattus norvegicus, UniProt P11275); assay: Kinase Selectivity Assay Calmodulin Kinase; assay type: biochemical; settings: Kinase Selectivity, Tables 2a-2k; read-out: Calmodulin Kinase 2 IC50
T5 construct: a truncated version of the alpha subunit of the rat protein; purchased New England Biolabs 6060; host or cells: insect cells
Procedure, shortened: as §1

[10] = target: T6, Casein Kinase 1 (CK1 delta isoform) (Rattus norvegicus, UniProt Q06486); assay: Kinase Selectivity Assay Casein Kinase 1; assay type: biochemical; settings: Tables 2a-2k, read-out: Caseine Kinase 1 IC50
T6 construct: a truncation at amino acid 318 of the C-terminal portion of the rat CK1 delta isoform; purchased New England Biolabs 6030; host or cells: E. coli
T6 sequence (Q06486 1-317): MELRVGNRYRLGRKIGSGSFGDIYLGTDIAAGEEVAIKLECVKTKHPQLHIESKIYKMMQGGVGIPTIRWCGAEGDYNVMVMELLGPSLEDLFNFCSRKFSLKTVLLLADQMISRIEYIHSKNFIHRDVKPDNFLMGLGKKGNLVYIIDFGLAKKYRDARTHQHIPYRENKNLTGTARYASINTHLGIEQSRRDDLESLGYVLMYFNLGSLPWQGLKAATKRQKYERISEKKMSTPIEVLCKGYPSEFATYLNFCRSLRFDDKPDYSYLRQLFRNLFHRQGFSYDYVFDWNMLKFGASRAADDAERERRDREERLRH
Procedure: as §3
CDK2 in complex with cyclin A is commercially available (Upstate Biotech, Lake Placid, N.Y.). The CDK4 complex was composed of a mouse CDK4 protein and a mouse Cyclin D1 protein (The mouse CDK4 protein was genetically fused to an N-terminal Flag-epitope tag and the mouse Cyclin D1 protein was fused with an N-terminal AU-1 epitope tag. The genes encoding these proteins were transferred to commercially available baculoviral vectors. The recombinant CDK4/D1 complex was then made by co-infecting commercially available insect cells with viruses carrying these two constructs). […] ERK-1 protein (Discontinued from Calbiochem). EGFR (epidermal growth factor receptor) is purified from human A431 cell membranes (Sigma, St. Louis, Mo., Cat.# E3641).

[11] = target: T7, PDGF-R (platelet derived growth factor receptor) beta subunit kinase domain (Homo sapiens, UniProt P09619); assay: Kinase Selectivity Assay PDGF-R; assay type: biochemical; settings: Kinase Selectivity, Tables 2a-2k; read-out: PDGF-R kinase IC50
T7 construct: nucleotides 1874-3507 of the human PDGF-R beta subunit kinase domain; polyhistidine (N)
T7 sequence (P09619 564-1106): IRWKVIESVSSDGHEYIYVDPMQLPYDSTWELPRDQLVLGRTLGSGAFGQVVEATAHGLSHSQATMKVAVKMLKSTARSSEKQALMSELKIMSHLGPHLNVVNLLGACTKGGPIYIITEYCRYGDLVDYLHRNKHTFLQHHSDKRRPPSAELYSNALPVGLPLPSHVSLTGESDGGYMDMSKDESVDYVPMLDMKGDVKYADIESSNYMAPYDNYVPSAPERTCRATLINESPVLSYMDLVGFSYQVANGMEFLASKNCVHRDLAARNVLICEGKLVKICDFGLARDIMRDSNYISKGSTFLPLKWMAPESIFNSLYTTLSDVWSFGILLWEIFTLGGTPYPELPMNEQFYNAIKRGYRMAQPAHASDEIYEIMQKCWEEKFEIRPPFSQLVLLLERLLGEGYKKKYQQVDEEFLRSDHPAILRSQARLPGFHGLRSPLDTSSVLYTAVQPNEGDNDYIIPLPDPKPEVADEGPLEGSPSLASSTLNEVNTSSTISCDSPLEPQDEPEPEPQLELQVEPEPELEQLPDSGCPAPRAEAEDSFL
Procedure, shortened: as §1

`Cc1ccsc1C(=O)n1nc(Nc2ccc(-n3cncn3)cc2)nc1N` [Cpd 99, 1-[(3-methyl-2-thienyl)carbonyl]-N^3-[4-(1H-1,2,4-triazol-1-yl)phenyl]-1H-1,2,4-triazole-3,5-diamine] was tested, and the IC50 [1] was 0.03 µM, the IC50 [2] was 3350 nM and the IC50 ([3]; Kinase Selectivity, Tables 2a-2k) was 0.098 µM. The IC50 ([3]; Table 1) was 0.098 µM, the IC50 [4] was > 100 µM and the IC50 [5] was 1690 nM. The IC50 [6] was > 100 µM, the IC50 [7] was > 100 µM and the IC50 [8] was > 100 µM. For the same compound, the IC50 [9] was > 100 µM, the IC50 [10] was > 1 µM and the IC50 [11] was 0.385 µM.
